Three compounds from patent publication US20120035218A1, “PEST CONTROL COMPOSITION” (SUMITOMO CHEMICAL COMPANY, LIMITED, priority 2010, published 2012) can be followed below.

For the assay, the system named is cat fleas. The assay is described as follows: Cat flea emergence inhibition from eggs on treated flea-rearing medium. The settings on record: 20 flea eggs, after approximately three weeks, corrected against acetone control. The format is in vivo. How it is done: Six gram quantities of medium for rearing fleas (mixed to make sand/powdered feed/dry yeast/dry bovine blood=80/16/3/1 wt %) were placed in vials. Acetone solutions were prepared so that the hydrazide compounds and pyriproxyfen would have the concentrations (wt % versus the medium) shown in Table 2 in the treated medium for rearing fleas. The medium was treated by 1.0 mL of the acetone solution, stirred until homogeneous, and dried. Filter paper (TOYO No. 2; 3.8 cm in diameter) was placed on aluminum dishes 3.8 cm in diameter, and 20 flea eggs were placed on the filter paper using a suitably moistened brush. A quantity of 1.0 g of the dried, treated medium was placed evenly on top of the filter paper on which the eggs rested, and the aluminum dishes were placed in resin petri dishes and stored at a temperature of 26° C. and humidity of 85-95%. Medium that had been treated only by acetone was also processed by the same method as a control group. After approximately three weeks, the emergence of the cat fleas was examined, and the emergence inhibition rate was calculated by the following formula.
Corrected emergency inhibition rate=(C−T)÷C×100
C: Emergence rate of untreated control group
T: Emergence rate of treated group

Setting [1] is: hydrazide compound 0.4 × 10^−4 % in combination with pyriproxyfen 10^−8 % (wt % versus the medium).
Where [2] appears, read: hydrazide compound alone, 0.4 × 10^−4 % (wt % versus the medium).

For the compound `O=C(CCC(F)(F)F)NNc1cc(C2=NOC(c3cc(Cl)cc(Cl)c3)(C(F)(F)F)C2)ccc1Cl` (centres unmarked) [Hydrazide compound (17), N′-{5-[5-(3,5-dichlorophenyl)-5-trifluoromethyl-4,5-dihydroisoxazol-3-yl]-2-chlorophenyl}-4,4,4-trifluorobutyrohydrazide], the “Emergence inhibition rate (%)” value came to 63% under setting [1] and 6.3% under setting [2].
Take `CN(NC(=O)CCC(F)(F)F)c1cc(C2=NOC(c3cc(Cl)cc(Cl)c3)(C(F)(F)F)C2)ccc1Cl` (centres unmarked) [Hydrazide compound (31), N′-methyl-N′-{2-chloro-5-[5-(3,5-dichlorophenyl)-5-trifluoromethyl-4,5-dihydroisoxazol-3-yl]phenyl}-4,4,4-trifluorobutyrohydrazide]: the “Emergence inhibition rate (%)” value is, setting by setting: under setting [1], 86%; under setting [2], 34%.
Regarding `CC(COc1ccc(Oc2ccccc2)cc1)Oc1ccccn1` (centres unmarked) [Pyriproxyfen, 4-phenoxyphenyl=2-(pyridyloxy)propyl=ether, reference compound], the “Emergence inhibition rate (%)” value (pyriproxyfen alone, 10^−8 % (wt % versus the medium)) is reported as 4.0%.
